Patent US20170202936A1, “Identification, Optimization And Use Of Cryptic HLA-B7 Epitopes For Immunotherapy” (VAXON BIOTECH, priority 2006, published 2017)

Tests used:
[1] = system: HLA-B*0702 transgenic mice; assay: CTL induction in vivo in HLA-B*0702 transgenic mice (immunogenicity, cytotoxic assay on peptide-loaded RMA-B7 targets); set-up: key to Corresponding native peptide cross-reconnaissance: + for immunogenicity or native peptide cross recognition means that the peptide induced a specific response in at least one HLA-B*0702 transgenic mouse, able to recognized the corresponding native peptide
Experimental: (§1) CTL Induction in vivo in HLA-B*0702 Transgenic Mice. Mice were injected subcutaneously with 100 μg of peptide emulsified in Incomplete Freund's Adjuvant (IFA) in the presence of 150 μg of the I-A^b restricted HBVcore128 T helper epitope ([…], SEQ ID NO: 10). After 11 days, 5×10^7 spleen cells were stimulated in vitro with peptide (10 μM). On day 6 of culture, the bulk responder populations were tested for specific cytotoxicity.
(§2) Cytotoxic assay. Targets were labelled with 100 μCi of Cr^51 for 60 min, plated in 96-well V-bottomed plates (3×10^3 cell/well in 100 μL of RPMI 1640 medium) and, when necessary, pulsed with peptides (1 μM) at 37° C. for 2 hours. Effectors were then added in the wells and incubated at 37° C. for 4 hours. Percentage of specific lysis was determined as: % Lysis=(Experimental Release−Spontaneous Release)/(Maximal Release−Spontaneous Release)×100.
(§3) HLA-B7 transgenic mice were vaccinated with the selected peptides, and eleven days later, their spleen cells were in vitro stimulated with the peptide.

[2] = system: COS-7 cells transfected with HLA-B*0702 and TERT; assay: Peptide processing assay on COS-7 transfected cells (TNFα secretion by murine CTL); assay type: cell-based, simian; settings: COS-7 cells transfected with HLA-B*0702 and/or TERT
Experimental: Peptide Processing Assay on COS-7 Transfected Cells. 2.2×10^4 simian COS-7 cells were plated in flat-bottomed 96-well plates in DMEM+10% FCS, in triplicate for each condition. Eighteen hours later, cells were transfected with 100 ng of each DNA plasmid with DEAE Dextran. After 4 hours, PBS+10% DMSO was added for 2 minutes. Transfected COS cells were incubated in DMEM+10% FCS during 40 hours and then used to stimulate murine CTL in a TNFα secretion assay.
TNFα Secretion Assay. Transfected COS-7 cells at day 4 were suspended in […] of RPMI+10% FCS and used as stimulating cells. 5×10^4 murine T cells were then added in 50 μl RPMI 10% FCS and incubated for 6 hours. Each condition was tested in triplicate. 50 μl of the supernatant was collected to measure TNFα. Standard dilutions were prepared in 50 μl with final doses of TNFα ranging from 104 to 0 pg/ml. On both the supernatants and the standard dilutions, 3×10^4 TNFα sensitive WEHI-164c13 cells in 50 μl were added. They were incubated for 16 h at 37° C. Inhibition of cell proliferation was evaluated by the MTT colorimetric method (Espevik and Nissen-Meyer, 1986).

T2-B7 cells = assay: IFNγ intracellular staining of human CTL stimulated with peptide-loaded T2-B7 cells; assay type: cell-based; settings: donor D5609, 4 pools; T2-B7 cells loaded with TERT444 or TERT444A1
Experimental: Generation of CTL from human PBMC. PBMC were collected by leukapheresis from healthy HLA-B*0702 volunteers. Dendritic cells (DC) were produced from adherent cells cultured for seven days (2×10^6 cells/ml) in the presence of 500 IU/ml GM-CSF and 500 IU/ml IL-4 (R&D Systems, Minneapolis, Minn.) in complete medium (RPMI-1640 supplemented with 10% heat inactivated human AB serum, […] L-Glutamine and antibiotics). On day seven, DC were pulsed with 10 μM peptides for 2 hrs; maturation agents Poly I:C (Sigma, Oakville, Canada) at 100 ng/ml and anti-CD40 mAb (clone G28-5, ATCC, Manassas, Va.) at 2 μg/ml were added in the culture and DCs were incubated at 37° C. overnight or up to 48 hours. Mature DC were then irradiated (3500 rads). CD8+ cells were purified by positive selection with CD8 MicroBeads (Miltenyi Biotec, Auburn, Calif.) according to the manufacturer's instructions. 2×10^5 CD8^+ cells+6×10^4 CD8^− cells were stimulated with 2×10^4 peptide pulsed DC in complete culture medium supplemented with 1000 IU/ml IL-6 and 5 IU/ml IL-12 (R&D Systems, Minneapolis, Minn.) in round-bottomed 96 well plates. From day seven, cultures were weekly restimulated with peptide-loaded DC in the presence of 20 IU/ml IL-2 (Proleukin, Chiron Corp., Emeryville, Calif.) and 10 ng/ml IL-7 (R&D Systems, Minneapolis, Minn.). […]

[3] = system: HLA-B*0702 transgenic mice; assay: CTL induction in vivo in HLA-B*0702 transgenic mice (immunogenicity, cytotoxic assay on peptide-loaded RMA-B7 targets); set-up: key: +: means that a specific immunoresponse was generated at least one HLA-B*0702 transgenic mice; settings: Table IV
Experimental: as §1, §2, §3

[4] = system: HLA-B*0702 transgenic mice; assay: as above; set-up: key: + for immunogenicity or native peptide cross recognition means that the peptide induced a specific response in at least one HLA-B*0702 transgenic mouse, able to recognized the corresponding native peptide; settings: Table V
Experimental: as §1, §2, §3

HLA-B*0702 = molecular target: T1, HLA-B*0702 (Homo sapiens, UniProt P01889); assay: Measurement of peptide relative affinity to HLA-B*0702 (T2-B7 cells, ME-1 mAb staining); assay type: binding
T1 construct: expressed in transfected cells; host or cells: human T2 cells transfected with HLA-B*0702 (T2-B7)
Experimental: The affinity of a peptide for HLA-B*0702 can be determined by methods known in the art, for instance by the assay described by Rohrlich et al., 2003. Results are expressed as relative affinity (RA) when compared to a reference peptide. […] Peptides with RA greater than 10 are therefore considered to be cryptic peptides (or epitopes).
Measurement of Peptide Relative Affinity to HLA-B*0702. The protocol used has been described previously (Rohrlich et al., 2003). Briefly, T2-B7 cells were incubated at 37° C. for 16 hours with peptides concentrations ranging from 100 μM to 0.1 μM, and then stained with ME-1 monoclonal antibody (mAb) to quantify the surface expression of HLA-B*0702. For each peptide concentration, the HLA-B*0702 specific staining was calculated as the percentage of staining obtained with 100 μM of the reference peptide CMV265-274 (R10V; […], SEQ ID NO: 9). The relative affinity (RA) was determined as: RA=(Concentration of each peptide that induces 20% of HLA-B*0702-expression/Concentration of the reference peptide that induces 20% of HLA-B*0702 expression).

APRRLVQLL [TERT444A1]
Corresponding native peptide cross-reconnaissance ([1]; CTL induced in HLA-B*0702 transgenic mice): + | Immunogenicity: specific CTL immune response (in words) ([1]; HLA-B*0702 transgenic mice): induced an immune response in the majority of vaccinated mice | Recognition of endogenous TERT by peptide-induced murine CTL [2]: recognized COS-7 cells transfected with both HLA-B*0702 and TERT but not COS-7 cells transfected with either HLA-B*0702 or TERT | Intracellular IFNg production by human CTL (T2-B7 cells): IFNg producing CTL were detected in pools 2 and 4 | Immunogenicity [3]: + | Immunogenicity [4]: + | Affinity for HLA-B*0702 (in words) (HLA-B*0702): strong affinity | RA (HLA-B*0702; class symbols, Table IV): + (+ = 1 < RA < 10)
